Experimental data as given in paper PMC5587309, “Involvement of arginine 878 together with Ca^2+ in mouse aminopeptidase A substrate specificity for N-terminal acidic amino-acid residues” (PLoS ONE, 2017).
Changes are numbered by the printed parent chain.

Legend:
Assay type in all cases: biochemical
R878A mutated mAPA = biological target: T1, R878A mutated mAPA (Mus musculus, UniProt P16406, R878A); assay: Inhibition of GluNA hydrolysis by purified recombinant R878A His-mAPA
T1 construct: made in house; host or cells: stably transfected CHO-K1 cells
T1 sequence (P16406 1-945 R878A): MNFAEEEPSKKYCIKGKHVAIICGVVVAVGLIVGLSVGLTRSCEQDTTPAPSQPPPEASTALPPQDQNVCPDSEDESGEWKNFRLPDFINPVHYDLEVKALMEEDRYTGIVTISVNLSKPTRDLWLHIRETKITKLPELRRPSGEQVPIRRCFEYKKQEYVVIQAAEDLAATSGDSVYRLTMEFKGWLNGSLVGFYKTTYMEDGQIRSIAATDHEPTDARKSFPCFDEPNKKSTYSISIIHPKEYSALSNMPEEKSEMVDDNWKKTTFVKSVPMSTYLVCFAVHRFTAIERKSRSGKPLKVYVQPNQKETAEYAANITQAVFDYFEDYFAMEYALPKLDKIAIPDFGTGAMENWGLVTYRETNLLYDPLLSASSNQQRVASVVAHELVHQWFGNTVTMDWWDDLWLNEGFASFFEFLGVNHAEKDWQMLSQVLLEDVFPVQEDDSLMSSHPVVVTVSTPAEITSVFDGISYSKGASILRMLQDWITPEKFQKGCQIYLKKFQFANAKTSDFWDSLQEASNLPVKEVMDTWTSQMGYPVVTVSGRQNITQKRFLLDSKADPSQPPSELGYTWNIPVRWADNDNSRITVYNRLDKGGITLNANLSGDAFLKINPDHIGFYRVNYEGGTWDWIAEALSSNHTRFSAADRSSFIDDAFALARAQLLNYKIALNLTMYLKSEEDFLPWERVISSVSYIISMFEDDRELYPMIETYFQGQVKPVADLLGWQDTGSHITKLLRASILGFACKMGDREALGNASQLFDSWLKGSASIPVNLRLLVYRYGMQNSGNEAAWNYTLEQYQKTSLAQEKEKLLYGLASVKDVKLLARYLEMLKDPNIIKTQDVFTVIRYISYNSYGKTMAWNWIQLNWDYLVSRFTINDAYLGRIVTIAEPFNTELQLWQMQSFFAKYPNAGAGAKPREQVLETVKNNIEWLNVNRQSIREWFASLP
Protocol: (§1) Enzyme assays were carried out for wild-type and mutated His-mAPAs in 50 mM Tris-HCl buffer, pH 7.4, with or without 4 mM CaCl2, by monitoring the rate of hydrolysis of GluNA, as previously described. The sensitivity to Ca^2+ of purified wild-type and mutated His-mAPA was determinated by incubating 0.5 mM GluNA with 0 to 4 mM CaCl2 in a final volume of 100 μl of 50 mM Tris-HCl buffer, pH 7.4. All the assays were performed in black 96-well plates (solid black 96-well flat-bottomed non-treated plates with no lid; Corning Costar). All of the enzymatic studies were performed such that substrate hydrolysis rates were maintained below 10% (initial rate conditions). The kinetic curves were monitored by following the increase in fluorescence at 460 nm (lex = 330 nm), induced by the release of the β-naphthylamide fluorogenic part of the substrate by APA. Fluorescence signals were monitored by counting photons with a spectrophotometer (Fusion universal microplate analyser; Packard) equipped with a temperature control device and a plate shaker. The kinetic parameters (Km and kcat) were determined from Michaelis-Menten plots, using GraphPad Prism 4 software (GraphPad) with a final concentration of substrate (GluNA) from 0.005 to 5 mM with or without 4 mM Ca^2+. For evaluation of the substrate specificity of APA with or without 4 mM Ca^2+, the rate of hydrolysis of […] additional substrates, α-L-aspartate-β-naphthylamide (AspNA), α-L-alanine-β-naphthylamide (AlaNA) and basic α-L-lysine-β-naphthylamide (LysNA), was determined under the same experimental conditions as described for GluNA. The sensitivity of wild-type and mutated His-mAPAs to inhibition by [(3S)-3-amino-4-sulfanyl-butane-1-sulfonic acid] (EC33), glutamate-thiol (GluSH), glutamate-phosphonic-acid (GluPO3H2), methionine-thiol (MetSH) and lysine-thiol (LysSH) was determined by establishing dose-dependent inhibition curves for a final GluNA concentration of 0.5 mM in the presence or absence of 4 mM CaCl2. These compounds being linear competitive inhibitors, their Ki were calculated from the formula Ki = IC50/ (1+ [GluNA]/Km).

wild-type mAPA [1] = biological target: T2, wild-type mAPA (Mus musculus, UniProt P16406); assay: Inhibition of GluNA hydrolysis by purified recombinant wild-type His-mAPA
T2 construct: made in house; host or cells: stably transfected CHO-K1 cells
T2 sequence (P16406 1-945): T1 sequence (P16406 1-945 R878A) with A878R
Protocol: as §1

R878K mutated mAPA = biological target: T3, R878K mutated mAPA (Mus musculus, UniProt P16406, R878K); assay: Inhibition of GluNA hydrolysis by purified recombinant R878K His-mAPA
T3 construct: made in house; host or cells: stably transfected CHO-K1 cells
T3 sequence (P16406 1-945 R878K): T1 sequence (P16406 1-945 R878A) with A878K
Protocol: as §1

wild-type mAPA [2] = biological target: T2, wild-type mAPA; assay: Ca2+ activation profile of GluNA hydrolysis by wild-type His-mAPA; details: 0.5 mM GluNA
Protocol: Enzyme assays were carried out for wild-type and mutated […] 50 mM Tris-HCl buffer, pH 7.4, with or without 4 mM CaCl2, by monitoring the rate of hydrolysis of GluNA, as previously described. The sensitivity to Ca^2+ of purified wild-type and mutated His-mAPA was determinated by incubating 0.5 mM GluNA with 0 to 4 mM CaCl2 in a final volume of 100 μl of 50 mM Tris-HCl buffer, pH 7.4. All the assays were performed in black 96-well plates (solid black 96-well flat-bottomed non-treated plates with no lid; Corning Costar). All of the enzymatic studies were performed such that substrate hydrolysis rates were maintained below 10% (initial rate conditions). […] Fluorescence signals were monitored by counting photons with a spectrophotometer (Fusion universal microplate analyser; Packard) equipped with a temperature control device and a plate shaker. […] Fig 3 Effects of the divalent cation Ca^2+ on recombinant wild-type and mutated mouse APAs enzymatic activities. Purified mAPAs (2 μg) were incubated at 37°C for 30 min with 0.5 mM GluNA with various concentrations of CaCl2 in a final volume of 100 μl of 50 mM Tris-HCl buffer (pH7.4). (A), APA enzymatic activities expressed as a percentage of maximal hydrolysis velocity obtained with 4 mM Ca^2+ for each purification vs log of Ca^2+ concentration. (B), Effect of increasing Ca^2+ concentration on APA enzymatic activities.

Row | EC50 (wild-type mAPA [2]; 0 to 4 mM CaCl2, read-out: EC50 of activation of enzymatic activity) | increase of enzymatic activity (wild-type mAPA [2]; Ca2+ concentration raised from 0 to 4 mM) | SMILES | Ki (R878A mutated mAPA) | times less efficiently inhibited than wild-type (R878A mutated mAPA; R878A mAPA, presence of Ca2+) | Ki (wild-type mAPA [1]) | Ki (R878K mutated mAPA) | times less efficiently inhibited than wild-type (R878K mutated mAPA; R878K mAPA, presence of Ca2+)
1 | – | – | N[C@@H](CCC(=O)O)P(=O)(O)O [GluPO3H2, (4R)-4-amino-4-phosphonobutanoic acid] | 6.5 ± 0.24 µM | 87 times | 0.074 ± 0.0077 µM | 0.619 ± 0.021 µM | 8 times
2 | 22 ± 5 µM | 7 fold | [Ca+2].[Cl-].[Cl-] [Ca^2+] | – | – | – | – | –
